Experimental data taken from the kinase profiling compilation of Christmann-Franck et al. (2016).

Assays:
Assay in all cases: KINOMEscan competition binding
Settings in all cases: compound 10.0 µM
AKT2 (human) = AKT2 (human) (UniProt P31751)
CDC42BPG (human) = CDC42BPG (human) (UniProt Q6DT37)
CDK4 CCND1 (human) = CDK4 CCND1 (human) (UniProt P11802+P24385)
CDK7 (human) = CDK7 (human) (UniProt P50613)
CLK4 (human) = CLK4 (human) (UniProt Q9HAZ1)
CSNK1G2 (human) = CSNK1G2 (human) (UniProt P78368)
EPHB1 (human) = EPHB1 (human) (UniProt P54762)
EPHB3 (human) = EPHB3 (human) (UniProt P54753)
FGFR2 (human) = FGFR2 (human) (UniProt P21802)
FLT1 (human) = FLT1 (human) (UniProt P17948)
HCK (human) = HCK (human) (UniProt P08631)
HIPK2 (human) = HIPK2 (human) (UniProt Q9H2X6)
KIT (human) = KIT (human) (UniProt P10721)
[1] = tested on: LRRK2 (human), Q5S007 [G2019S]
MAP2K2 (human) = MAP2K2 (human) (UniProt P36507)
MERTK (human) = MERTK (human) (UniProt Q12866)
Sequence of MERTK (human) (Q12866 whole entry, looked up): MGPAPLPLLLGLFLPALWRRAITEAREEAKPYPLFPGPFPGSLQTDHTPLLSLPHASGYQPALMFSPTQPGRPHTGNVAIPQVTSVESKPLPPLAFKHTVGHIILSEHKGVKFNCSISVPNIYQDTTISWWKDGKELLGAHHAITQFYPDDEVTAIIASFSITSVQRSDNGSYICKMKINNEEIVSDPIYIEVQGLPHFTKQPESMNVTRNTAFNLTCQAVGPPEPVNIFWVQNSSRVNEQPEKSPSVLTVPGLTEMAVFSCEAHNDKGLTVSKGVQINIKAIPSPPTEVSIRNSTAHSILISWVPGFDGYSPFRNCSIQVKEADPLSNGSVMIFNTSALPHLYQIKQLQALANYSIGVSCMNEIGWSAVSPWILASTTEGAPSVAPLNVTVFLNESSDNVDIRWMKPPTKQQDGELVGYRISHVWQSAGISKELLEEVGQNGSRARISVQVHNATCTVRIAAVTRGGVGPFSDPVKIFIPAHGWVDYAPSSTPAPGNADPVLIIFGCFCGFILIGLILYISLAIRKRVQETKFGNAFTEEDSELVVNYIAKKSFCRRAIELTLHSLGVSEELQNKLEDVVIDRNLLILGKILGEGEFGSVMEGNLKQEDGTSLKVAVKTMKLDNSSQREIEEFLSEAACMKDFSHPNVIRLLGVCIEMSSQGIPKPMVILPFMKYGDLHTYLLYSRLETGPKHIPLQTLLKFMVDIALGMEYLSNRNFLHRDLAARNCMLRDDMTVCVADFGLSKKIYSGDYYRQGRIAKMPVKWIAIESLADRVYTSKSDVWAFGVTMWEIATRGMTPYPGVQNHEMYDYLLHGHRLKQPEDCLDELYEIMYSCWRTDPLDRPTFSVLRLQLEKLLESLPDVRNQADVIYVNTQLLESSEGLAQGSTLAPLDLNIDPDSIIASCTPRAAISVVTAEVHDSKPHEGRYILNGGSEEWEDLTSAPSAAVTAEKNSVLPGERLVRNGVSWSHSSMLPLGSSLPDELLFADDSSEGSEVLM

MKNK2 (human) = MKNK2 (human) (UniProt Q9HBH9)
MYLK (human) = MYLK (human) (UniProt Q15746)
PIK3CD (human) = PIK3CD (human) (UniProt O00329)
Sequence of PIK3CD (human) (O00329 whole entry, looked up): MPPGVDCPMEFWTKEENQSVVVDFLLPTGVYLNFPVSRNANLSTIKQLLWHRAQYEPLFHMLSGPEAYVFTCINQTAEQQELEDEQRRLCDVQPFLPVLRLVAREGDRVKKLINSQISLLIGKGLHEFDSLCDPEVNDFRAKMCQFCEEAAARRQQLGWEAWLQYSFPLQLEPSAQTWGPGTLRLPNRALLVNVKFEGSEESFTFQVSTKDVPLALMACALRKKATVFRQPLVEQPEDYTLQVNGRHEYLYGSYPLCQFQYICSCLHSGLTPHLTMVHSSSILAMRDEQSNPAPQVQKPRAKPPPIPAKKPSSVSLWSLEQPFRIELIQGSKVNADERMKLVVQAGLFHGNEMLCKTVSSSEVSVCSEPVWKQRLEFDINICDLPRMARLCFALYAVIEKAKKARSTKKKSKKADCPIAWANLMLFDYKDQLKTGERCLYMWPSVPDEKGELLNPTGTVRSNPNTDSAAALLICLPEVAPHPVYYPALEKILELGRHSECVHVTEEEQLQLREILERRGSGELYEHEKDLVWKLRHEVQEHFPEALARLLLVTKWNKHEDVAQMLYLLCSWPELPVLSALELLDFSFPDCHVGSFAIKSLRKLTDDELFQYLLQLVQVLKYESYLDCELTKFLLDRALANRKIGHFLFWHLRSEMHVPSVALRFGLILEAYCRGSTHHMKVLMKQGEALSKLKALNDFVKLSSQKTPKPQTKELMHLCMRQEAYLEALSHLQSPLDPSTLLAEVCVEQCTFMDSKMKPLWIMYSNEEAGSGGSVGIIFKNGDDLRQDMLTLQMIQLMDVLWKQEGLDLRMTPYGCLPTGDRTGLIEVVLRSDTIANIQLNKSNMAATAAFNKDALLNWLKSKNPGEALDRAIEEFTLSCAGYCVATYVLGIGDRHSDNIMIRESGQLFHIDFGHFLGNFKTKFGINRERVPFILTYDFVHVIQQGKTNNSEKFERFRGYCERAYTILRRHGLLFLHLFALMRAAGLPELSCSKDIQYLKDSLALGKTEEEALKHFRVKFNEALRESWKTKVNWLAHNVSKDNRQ

PIM1 (human) = PIM1 (human) (UniProt P11309)
PIM2 (human) = PIM2 (human) (UniProt Q9P1W9)
Sequence of PIM2 (human) (Q9P1W9 whole entry, looked up): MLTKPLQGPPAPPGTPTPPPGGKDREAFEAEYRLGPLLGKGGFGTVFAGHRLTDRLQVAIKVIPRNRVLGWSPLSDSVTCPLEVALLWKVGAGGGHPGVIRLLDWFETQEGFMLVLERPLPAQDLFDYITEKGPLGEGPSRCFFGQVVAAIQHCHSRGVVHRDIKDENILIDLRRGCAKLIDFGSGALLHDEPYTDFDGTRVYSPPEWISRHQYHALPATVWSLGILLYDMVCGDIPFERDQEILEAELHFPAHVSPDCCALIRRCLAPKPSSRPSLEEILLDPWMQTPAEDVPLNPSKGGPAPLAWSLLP

PIP5K1C (human) = PIP5K1C (human) (UniProt O60331)
PLK1 (human) = PLK1 (human) (UniProt P53350)
PRKAA2 (human) = PRKAA2 (human) (UniProt P54646)
PRKD2 (human) = PRKD2 (human) (UniProt Q9BZL6)
Sequence of PRKD2 (human) (Q9BZL6 whole entry, looked up): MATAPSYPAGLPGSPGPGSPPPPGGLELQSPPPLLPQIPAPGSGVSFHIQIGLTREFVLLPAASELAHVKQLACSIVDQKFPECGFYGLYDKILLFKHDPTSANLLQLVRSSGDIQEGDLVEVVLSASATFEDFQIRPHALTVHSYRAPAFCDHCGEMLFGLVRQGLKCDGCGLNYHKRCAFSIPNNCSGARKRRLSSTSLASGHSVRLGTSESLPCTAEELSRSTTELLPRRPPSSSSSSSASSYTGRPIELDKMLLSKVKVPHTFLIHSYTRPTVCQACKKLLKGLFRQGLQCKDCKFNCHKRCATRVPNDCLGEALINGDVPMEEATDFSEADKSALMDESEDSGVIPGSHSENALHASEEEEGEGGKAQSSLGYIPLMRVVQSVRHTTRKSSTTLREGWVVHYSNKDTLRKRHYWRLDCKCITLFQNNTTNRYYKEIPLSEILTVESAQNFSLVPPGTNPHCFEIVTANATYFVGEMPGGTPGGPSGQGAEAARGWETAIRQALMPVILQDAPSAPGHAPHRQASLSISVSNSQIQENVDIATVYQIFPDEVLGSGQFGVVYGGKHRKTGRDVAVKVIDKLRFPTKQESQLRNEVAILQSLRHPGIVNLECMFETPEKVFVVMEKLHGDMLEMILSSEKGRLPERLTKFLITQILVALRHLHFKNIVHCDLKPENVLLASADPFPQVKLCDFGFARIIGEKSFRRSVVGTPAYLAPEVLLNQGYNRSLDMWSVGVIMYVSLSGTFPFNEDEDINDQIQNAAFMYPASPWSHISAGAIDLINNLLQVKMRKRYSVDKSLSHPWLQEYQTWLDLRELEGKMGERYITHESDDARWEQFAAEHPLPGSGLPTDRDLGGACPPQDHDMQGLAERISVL

PRKG2 (human) = PRKG2 (human) (UniProt Q13237)
RET (human) = RET (human) (UniProt P07949)
RPS6KA2 KD2 (human) = RPS6KA2 KD2 (human) (UniProt Q15349)
SIK1 (human) = SIK1 (human) (UniProt P57059)
SIK3 (human) = SIK3 (human) (UniProt Q9Y2K2)
STK36 (human) = STK36 (human) (UniProt Q9NRP7)
STK38L (human) = STK38L (human) (UniProt Q9Y2H1)
Sequence of STK38L (human) (Q9Y2H1 whole entry, looked up): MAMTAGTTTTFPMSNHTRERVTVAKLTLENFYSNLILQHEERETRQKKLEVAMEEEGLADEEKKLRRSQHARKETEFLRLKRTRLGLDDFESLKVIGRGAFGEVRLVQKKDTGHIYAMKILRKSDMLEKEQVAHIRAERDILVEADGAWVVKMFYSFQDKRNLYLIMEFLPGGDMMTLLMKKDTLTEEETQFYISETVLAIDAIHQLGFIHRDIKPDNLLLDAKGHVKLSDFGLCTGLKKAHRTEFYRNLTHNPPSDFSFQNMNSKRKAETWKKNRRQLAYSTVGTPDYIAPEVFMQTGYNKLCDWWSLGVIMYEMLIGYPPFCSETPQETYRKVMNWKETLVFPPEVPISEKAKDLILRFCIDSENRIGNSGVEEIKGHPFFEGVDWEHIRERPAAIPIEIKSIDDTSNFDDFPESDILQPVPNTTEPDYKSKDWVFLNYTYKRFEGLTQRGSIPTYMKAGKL

SYK (human) = SYK (human) (UniProt P43405)
TAOK2 (human) = TAOK2 (human) (UniProt Q9UL54)
TBK1 (human) = TBK1 (human) (UniProt Q9UHD2)
Sequence of TBK1 (human) (Q9UHD2 whole entry, looked up): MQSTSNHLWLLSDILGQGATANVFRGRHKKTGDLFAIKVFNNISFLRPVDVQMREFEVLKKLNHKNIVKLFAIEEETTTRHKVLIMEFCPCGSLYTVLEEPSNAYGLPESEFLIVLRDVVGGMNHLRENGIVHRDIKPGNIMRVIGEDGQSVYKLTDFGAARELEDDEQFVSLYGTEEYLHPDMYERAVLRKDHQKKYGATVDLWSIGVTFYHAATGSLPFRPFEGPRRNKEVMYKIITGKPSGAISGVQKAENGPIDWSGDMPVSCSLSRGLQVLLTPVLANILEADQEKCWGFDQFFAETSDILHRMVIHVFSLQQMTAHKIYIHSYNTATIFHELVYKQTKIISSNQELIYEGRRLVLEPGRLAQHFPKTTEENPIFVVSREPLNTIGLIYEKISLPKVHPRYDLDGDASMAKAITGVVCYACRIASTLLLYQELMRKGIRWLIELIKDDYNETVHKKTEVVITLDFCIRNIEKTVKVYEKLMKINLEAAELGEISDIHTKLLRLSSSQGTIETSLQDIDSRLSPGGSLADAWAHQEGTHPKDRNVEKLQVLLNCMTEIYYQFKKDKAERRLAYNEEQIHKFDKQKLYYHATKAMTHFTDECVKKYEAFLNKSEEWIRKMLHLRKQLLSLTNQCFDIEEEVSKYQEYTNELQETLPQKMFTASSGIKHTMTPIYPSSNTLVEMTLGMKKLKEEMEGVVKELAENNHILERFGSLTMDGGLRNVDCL

TESK1 (human) = TESK1 (human) (UniProt Q15569)
TLK1 (human) = TLK1 (human) (UniProt Q9UKI8)
TTK (human) = TTK (human) (UniProt P33981)
ZAP70 (human) = ZAP70 (human) (UniProt P43403)
Sequence of ZAP70 (human) (P43403 whole entry, looked up): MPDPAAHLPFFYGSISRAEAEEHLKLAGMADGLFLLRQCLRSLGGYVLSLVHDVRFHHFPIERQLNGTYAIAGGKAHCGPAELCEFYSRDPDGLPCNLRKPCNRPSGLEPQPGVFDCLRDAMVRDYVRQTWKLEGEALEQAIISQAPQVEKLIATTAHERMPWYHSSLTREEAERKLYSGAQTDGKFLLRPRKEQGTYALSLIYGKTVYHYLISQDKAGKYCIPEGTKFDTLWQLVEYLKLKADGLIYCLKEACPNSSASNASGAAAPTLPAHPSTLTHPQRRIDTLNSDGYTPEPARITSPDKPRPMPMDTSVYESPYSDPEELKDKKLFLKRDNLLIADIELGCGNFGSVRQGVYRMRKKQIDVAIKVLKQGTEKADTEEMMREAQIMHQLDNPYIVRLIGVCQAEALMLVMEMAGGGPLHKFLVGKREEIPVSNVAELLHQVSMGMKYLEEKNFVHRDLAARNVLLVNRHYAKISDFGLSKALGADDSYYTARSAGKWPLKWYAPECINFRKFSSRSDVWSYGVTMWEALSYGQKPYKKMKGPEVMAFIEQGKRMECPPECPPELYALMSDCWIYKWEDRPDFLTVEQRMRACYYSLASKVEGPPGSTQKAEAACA

MET (human) = MET (human) (UniProt P08581)

Row | Compound | kinase still bound, per cent of control (CDC42BPG (human)) | kinase still bound, per cent of control (CDK7 (human)) | kinase still bound, per cent of control (CLK4 (human)) | kinase still bound, per cent of control (CSNK1G2 (human)) | kinase still bound, per cent of control (EPHB3 (human)) | kinase still bound, per cent of control (FGFR2 (human)) | kinase still bound, per cent of control (FLT1 (human)) | kinase still bound, per cent of control (HIPK2 (human)) | kinase still bound, per cent of control (KIT (human)) | kinase still bound, per cent of control (MAP2K2 (human)) | kinase still bound, per cent of control (MERTK (human)) | kinase still bound, per cent of control (MKNK2 (human)) | kinase still bound, per cent of control (MYLK (human)) | kinase still bound, per cent of control (PIK3CD (human)) | kinase still bound, per cent of control (PIM2 (human)) | kinase still bound, per cent of control (PLK1 (human)) | kinase still bound, per cent of control (PRKAA2 (human)) | kinase still bound, per cent of control (PRKD2 (human)) | kinase still bound, per cent of control (PRKG2 (human)) | kinase still bound, per cent of control (RET (human)) | other results
1 | COc1cc2c(Nc3ccc(NC(=O)c4ccccc4)cc3)ncnc2cc1OCCCN1CCOCC1 | 72% | 6.5% | 100% | 100% | 100% | 89% | 56% | 50% | 0% | 0.1% | 2.4% | 4.2% | 92% | 100% | 100% | 100% | 72% | 100% | 91% | 0.15% | kinase still bound, per cent of control (AKT2 (human)): 100%; kinase still bound, per cent of control (CDK4 CCND1 (human)): 93%; kinase still bound, per cent of control (EPHB1 (human)): 100%; kinase still bound, per cent of control (HCK (human)): 2%; kinase still bound, per cent of control [1]: 100%; kinase still bound, per cent of control (PIM1 (human)): 100%; kinase still bound, per cent of control (PIP5K1C (human)): 69%; kinase still bound, per cent of control (RPS6KA2 KD2 (human)): 100%; kinase still bound, per cent of control (SIK1 (human)): 82%; kinase still bound, per cent of control (SIK3 (human)): 100%; kinase still bound, per cent of control (STK36 (human)): 98%; kinase still bound, per cent of control (STK38L (human)): 100%; kinase still bound, per cent of control (SYK (human)): 69%; kinase still bound, per cent of control (TAOK2 (human)): 94%; kinase still bound, per cent of control (TBK1 (human)): 66%; kinase still bound, per cent of control (TESK1 (human)): 59%; kinase still bound, per cent of control (TLK1 (human)): 78%; kinase still bound, per cent of control (TTK (human)): 40%; kinase still bound, per cent of control (ZAP70 (human)): 100%
2 | Cc1cn(-c2cc(C(=O)Nc3ccc(C)c(NC(=O)c4ccno4)c3)cc(C(F)(F)F)c2)cn1 | 100% | 100% | 100% | 100% | 27% | 100% | 100% | 100% | 0% | 100% | 100% | 100% | 100% | 100% | 100% | 100% | 100% | 100% | 100% | 100% | kinase still bound, per cent of control (AKT2 (human)): 100%; kinase still bound, per cent of control (EPHB1 (human)): 21%; kinase still bound, per cent of control (HCK (human)): 1.4%; kinase still bound, per cent of control (MET (human)): 100%; kinase still bound, per cent of control (PIM1 (human)): 100%; kinase still bound, per cent of control (RPS6KA2 KD2 (human)): 100%; kinase still bound, per cent of control (SIK1 (human)): 100%; kinase still bound, per cent of control (SIK3 (human)): 100%; kinase still bound, per cent of control (STK36 (human)): 100%; kinase still bound, per cent of control (STK38L (human)): 100%; kinase still bound, per cent of control (SYK (human)): 100%; kinase still bound, per cent of control (TBK1 (human)): 100%; kinase still bound, per cent of control (TESK1 (human)): 100%; kinase still bound, per cent of control (TLK1 (human)): 100%; kinase still bound, per cent of control (TTK (human)): 100%; kinase still bound, per cent of control (ZAP70 (human)): 100%
3 | CCN(CCO)CCCOc1ccc2c(Nc3cc(CC(=O)Nc4cccc(F)c4)[nH]n3)ncnc2c1 | 100% | 15% | 36% | 76% | 100% | 80% | 1% | 31% | 0% | 21% | 77% | 6.4% | 80% | 88% | 100% | 100% | 77% | 80% | 92% | 0.25% | kinase still bound, per cent of control (AKT2 (human)): 90%; kinase still bound, per cent of control (CDK4 CCND1 (human)): 92%; kinase still bound, per cent of control (EPHB1 (human)): 98%; kinase still bound, per cent of control (HCK (human)): 31%; kinase still bound, per cent of control [1]: 100%; kinase still bound, per cent of control (MET (human)): 46%; kinase still bound, per cent of control (PIM1 (human)): 100%; kinase still bound, per cent of control (PIP5K1C (human)): 75%; kinase still bound, per cent of control (RPS6KA2 KD2 (human)): 77%; kinase still bound, per cent of control (SIK1 (human)): 88%; kinase still bound, per cent of control (SIK3 (human)): 100%; kinase still bound, per cent of control (STK36 (human)): 37%; kinase still bound, per cent of control (STK38L (human)): 100%; kinase still bound, per cent of control (TAOK2 (human)): 98%; kinase still bound, per cent of control (TBK1 (human)): 90%; kinase still bound, per cent of control (TESK1 (human)): 100%; kinase still bound, per cent of control (TLK1 (human)): 60%; kinase still bound, per cent of control (TTK (human)): 49%; kinase still bound, per cent of control (ZAP70 (human)): 84%
4 | CC(=O)c1c(C)c2cnc(Nc3ccc(N4CCNCC4)cn3)nc2n(C2CCCC2)c1=O | 94% | 12% | 2% | 92% | 91% | 95% | 100% | 0.25% | 60% | 9.1% | 39% | 20% | 20% | 28% | 52% | 8.4% | 40% | 0.7% | 65% | 71% | kinase still bound, per cent of control (CDK4 CCND1 (human)): 0%; kinase still bound, per cent of control [1]: 39%; kinase still bound, per cent of control (MET (human)): 36%; kinase still bound, per cent of control (PIP5K1C (human)): 35%; kinase still bound, per cent of control (RPS6KA2 KD2 (human)): 26%; kinase still bound, per cent of control (SIK1 (human)): 90%; kinase still bound, per cent of control (SIK3 (human)): 100%; kinase still bound, per cent of control (STK36 (human)): 78%; kinase still bound, per cent of control (TAOK2 (human)): 30%; kinase still bound, per cent of control (TBK1 (human)): 47%; kinase still bound, per cent of control (TESK1 (human)): 99%; kinase still bound, per cent of control (TLK1 (human)): 42%; kinase still bound, per cent of control (TTK (human)): 26%; kinase still bound, per cent of control (ZAP70 (human)): 73%
